System: WT MEF EVs
Assay: Quantitative LC-MS/MS proteomics of EVs from ISRIB-treated WT MEF cultures
Assay type: cell-based, mouse
Parameters: key to ISRIB and DYT Parallel Direction / ISRIB and DYT Parallel Direction, Ctdsp1 / ISRIB and DYT Parallel Direction, Pcdh19 / ISRIB and DYT Parallel Direction, Tspan7 / ISRIB and DYT Parallel Direction, Myo1e / ISRIB and DYT Parallel Direction, Plpp3 / ISRIB and DYT Parallel Direction, Sh3bp4 / ISRIB and DYT Parallel Direction, Dnajc7 / ISRIB and DYT Parallel Direction, Drg1 / ISRIB and DYT Parallel Direction, Maea: YES = protein abundance effect similar to DYT/WT

## O=C(COc1ccc(Cl)cc1)NC1CCC(NC(=O)COc2ccc(Cl)cc2)CC1 (stereo not shown) [ISRIB, reference compound]
50 nM, 24 h, p<0.05
  genotype-disrupted proteins (n=363) reproduced by ISRIB: 7%
50 nM, 24 h, p<0.05, of 1974 proteins
  EV proteins disrupted by ISRIB treatment of WT cells: 5%
EV protein Brd4 (Q9ESU6)
  WT + ISRIB/WT Cohen's d, Brd4: 0.37
EV protein Cdk11b (P24788)
  WT + ISRIB/WT Cohen's d, Cdk11b: 4.28
EV protein Cfdp1 (O88271)
  WT + ISRIB/WT Cohen's d, Cfdp1: 8.58
EV protein Cstf1 (Q99LC2)
  WT + ISRIB/WT Cohen's d, Cstf1: 1.34
EV protein Ctdsp1 (P58466)
  WT + ISRIB/WT Cohen's d, Ctdsp1: −10.61
EV protein Ctdsp1 (P58466), WT + ISRIB vs WT
  ISRIB and DYT Parallel Direction, Ctdsp1: YES
EV protein Dcaf8 (Q8N7N5)
  WT + ISRIB/WT Cohen's d, Dcaf8: 0.84
EV protein Dnajc7 (Q9QYI3)
  WT + ISRIB/WT Cohen's d, Dnajc7: −2.37
EV protein Dnajc7 (Q9QYI3), WT + ISRIB vs WT
  ISRIB and DYT Parallel Direction, Dnajc7: YES
EV protein Drg1 (P32233)
  WT + ISRIB/WT Cohen's d, Drg1: −1.58
EV protein Drg1 (P32233), WT + ISRIB vs WT
  ISRIB and DYT Parallel Direction, Drg1: YES
EV protein Edil3 (O35474)
  WT + ISRIB/WT Cohen's d, Edil3: 3.24
EV protein Grwd1 (Q810D6)
  WT + ISRIB/WT Cohen's d, Grwd1: 4.92
EV protein Heatr3 (Q8BQM4)
  WT + ISRIB/WT Cohen's d, Heatr3: 1.40
EV protein Hmga2 (P52927)
  WT + ISRIB/WT Cohen's d, Hmga2: 0.21
EV protein Kntc1 (Q8C3Y4)
  WT + ISRIB/WT Cohen's d, Kntc1: 0.31
EV protein Lpar6 (Q8BMC0)
  WT + ISRIB/WT Cohen's d, Lpar6: −1.25
EV protein Lsm4 (Q9QXA5)
  WT + ISRIB/WT Cohen's d, Lsm4: 0.61
EV protein Maea (Q4VC33)
  WT + ISRIB/WT Cohen's d, Maea: −2.82
EV protein Maea (Q4VC33), WT + ISRIB vs WT
  ISRIB and DYT Parallel Direction, Maea: YES
EV protein Myo1e (E9Q634)
  WT + ISRIB/WT Cohen's d, Myo1e: −1.56
EV protein Myo1e (E9Q634), WT + ISRIB vs WT
  ISRIB and DYT Parallel Direction, Myo1e: YES
EV protein Naa50 (Q6PGB6)
  WT + ISRIB/WT Cohen's d, Naa50: 1.03
EV protein Ndrg1 (Q62433)
  WT + ISRIB/WT Cohen's d, Ndrg1: 1.14
EV protein P3h4 (Q8K2B0)
  WT + ISRIB/WT Cohen's d, P3h4: 1.07
EV protein Pacsin3 (Q99JB8)
  WT + ISRIB/WT Cohen's d, Pacsin3: −2.60
EV protein Pcdh19 (Q80TF3)
  WT + ISRIB/WT Cohen's d, Pcdh19: −2.26
EV protein Pcdh19 (Q80TF3), WT + ISRIB vs WT
  ISRIB and DYT Parallel Direction, Pcdh19: YES
EV protein Plpp3 (Q99JY8)
  WT + ISRIB/WT Cohen's d, Plpp3: 4.49
EV protein Plpp3 (Q99JY8), WT + ISRIB vs WT
  ISRIB and DYT Parallel Direction, Plpp3: YES
EV protein Rbm17 (Q8JZX4)
  WT + ISRIB/WT Cohen's d, Rbm17: 0.36
EV protein Sbno1 (Q689Z5)
  WT + ISRIB/WT Cohen's d, Sbno1: 0.31
EV protein Sec61b (Q9CQS8)
  WT + ISRIB/WT Cohen's d, Sec61b: 3.71
EV protein Sh3bp4 (Q921I6)
  WT + ISRIB/WT Cohen's d, Sh3bp4: −0.29
EV protein Sh3bp4 (Q921I6), WT + ISRIB vs WT
  ISRIB and DYT Parallel Direction, Sh3bp4: YES
EV protein Srrm2 (Q8BTI8)
  WT + ISRIB/WT Cohen's d, Srrm2: 0.17
EV protein Sumo1 (P63166)
  WT + ISRIB/WT Cohen's d, Sumo1: 5.82
EV protein Tes (P47226)
  WT + ISRIB/WT Cohen's d, Tes: 1.50
EV protein Timp3 (P39876)
  WT + ISRIB/WT Cohen's d, Timp3: −3.42
EV protein Tspan7 (Q62283)
  WT + ISRIB/WT Cohen's d, Tspan7: −0.21
EV protein Tspan7 (Q62283), WT + ISRIB vs WT
  ISRIB and DYT Parallel Direction, Tspan7: YES
EV protein Unc119b (Q8C4B4)
  WT + ISRIB/WT Cohen's d, Unc119b: 0.17
ISRIB
  proteins reduced in both mouse and human EVs whose abundance is modulated toward DYT1-like in WT cells (and toward correction by salubrinal in DYT1 cells): 4 of the 7
WT+ISRIB/WT, 50 nM, 24 h
  Acaa1a (ACAA1) EV abundance Cohen's d: −0.8751
  Acaa1a (ACAA1) EV abundance Log2_FC: −0.6305
  Ano6 (ANO6) EV abundance Cohen's d: 0.8352
  Ano6 (ANO6) EV abundance Log2_FC: 0.2496
  Ap1b1 (AP1B1) EV abundance Cohen's d: −0.2382
  Ap1b1 (AP1B1) EV abundance Log2_FC: −0.1813
  Arl8b (ARL8B) EV abundance Cohen's d: −0.8778
  Arl8b (ARL8B) EV abundance Log2_FC: −0.2989
  Bzw2 (BZW2) EV abundance Cohen's d: −0.9186
  Bzw2 (BZW2) EV abundance Log2_FC: 0.7265
  Cryab (CRYAB) EV abundance Cohen's d: −0.1165
  Cryab (CRYAB) EV abundance Log2_FC: 0.1177
  DIst (DLST) EV abundance Cohen's d: 0.6821
  DIst (DLST) EV abundance Log2_FC: −1.897
  Ehd4 (EHD4) EV abundance Cohen's d: −1.159
  Ehd4 (EHD4) EV abundance Log2_FC: −0.09267
  Flna (FLNA) EV abundance Cohen's d: −0.09039
  Flna (FLNA) EV abundance Log2_FC: −0.2341
  Fscn1 (FSCN1) EV abundance Cohen's d: −0.9728
  Fscn1 (FSCN1) EV abundance Log2_FC: −0.2944
  Gart (GART) EV abundance Cohen's d: −0.1196
  Gart (GART) EV abundance Log2_FC: −0.2546
  Hist1h1b (H1-5) EV abundance Cohen's d: −0.4556
  Hist1h1b (H1-5) EV abundance Log2_FC: −0.08676
  Hnrnpc (HNRNPC) EV abundance Cohen's d: 1.199

— patent publication US20260266848A1, “COMPOSITIONS AND METHODS FOR DIAGNOSING AND TREATING DYSTONIA” (Duke University, priority 2023, published 2026)
